Patent US12569498B2, “Methods and compositions for the prevention and treatment of ischemia reperfusion injury and infection” (CHILDREN'S NATIONAL MEDICAL CENTER, priority 2019, dated 2026)
Entries after “also recorded” stand apart in the source; their conditions may differ.

What was measured:
[1] = cited from earlier work
[2] = target: α7nAChR (Homo sapiens, UniProt P36544); settings: peak concentrations in smokers / levels with therapeutic dosing in humans (Campling 2013); cited from earlier work
α7nAChR, sequence (P36544 23-502): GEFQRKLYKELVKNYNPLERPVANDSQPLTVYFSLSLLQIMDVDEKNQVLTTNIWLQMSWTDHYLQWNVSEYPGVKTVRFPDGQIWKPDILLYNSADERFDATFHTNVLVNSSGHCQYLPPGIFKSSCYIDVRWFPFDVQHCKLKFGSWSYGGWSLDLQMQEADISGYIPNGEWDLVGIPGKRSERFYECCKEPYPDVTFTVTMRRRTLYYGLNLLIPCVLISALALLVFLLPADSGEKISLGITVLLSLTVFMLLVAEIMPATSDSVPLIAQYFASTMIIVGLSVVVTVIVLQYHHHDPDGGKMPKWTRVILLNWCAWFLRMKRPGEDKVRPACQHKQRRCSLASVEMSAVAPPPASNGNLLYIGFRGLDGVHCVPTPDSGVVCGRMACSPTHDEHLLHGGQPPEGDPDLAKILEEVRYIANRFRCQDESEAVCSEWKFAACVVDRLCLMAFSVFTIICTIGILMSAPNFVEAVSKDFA

[3] = test system: adhesion molecules E-selectin, ICAM-1 and VCAM-1; settings: Saeed 2005; cited from earlier work
[4] = literature, cited from earlier work; for testicular myeloperoxidase activity: acutely; for testicular myeloperoxidase activity / long term spermatogenesis: animal models of testicular torsion
[5] = test system: CD45+ immune cells in the torsed testis; assay: Flow cytometry of CD45+ immune cell infiltrate in testis after testicular torsion; type: in vivo, CD1 mice; settings: cytisine 0.1 μg/gram i.p. 1 hour before torsion; 18 hours after reperfusion; vs mice without cytisine; P<0.0001
Experimental: (§1) Unilateral testicular torsion was induced in mature male CD1 mice by rotating the right testicle 720 degrees for 2 hours. Treatment with cytisine or varenicline was initiated one hour prior or one hour after the creation of testicular torsion. Testes were harvested 18 hours and 30 days following reperfusion. The acute inflammatory response was quantified with FACS analysis, […], reduced glutathione levels and quantification of the expression of IRI markers. Long term (30 day) outcomes were assessed by histologic evaluation, quantification of the expression of pro-fibrotic genes and measurement of testicular weight.
Mice underwent testicular torsion as previously described (Lysiak 2001). Briefly, mice were anesthetized with isoflurane over a heating pad. […]
Eighteen hours after reperfusion of the testis in the cytisine group and 48 hours after reperfusion in the varenicline group, bilateral testes were harvested, homogenized and digested with digestion solution containing 0.5% FBS, 20 mM HEPES, RPMI Medium, 0.057 U/ml DNase I, 1 mg/ml collagenase b. Cells were washed, counted with a hemocytometer and 1 million then diluted to 1 million cells per mL. […] For each sample 300,000 live cells were counted using BD FACSCalibur (BD Biosciences, San Jose, CA) and analyzed with FlowJo 9.0 software (TreeStar, Ashland, OR).

[6] = test system: oxidative stress within the testis; assay: Myeloperoxidase activity and reduced glutathione levels in testis after testicular torsion; type: in vivo, CD1 mice; settings: cytisine an hour prior to onset of torsion; vs untreated controls
Experimental: Mice underwent testicular torsion as previously described (Lysiak 2001). Briefly, mice were anesthetized with isoflurane over a heating pad. The right testis was delivered through a low scrotal incision and rotated counterclockwise 720 degrees to induce ischemia for 2 hours. […] All animals were injected with long-acting buprenorphine (0.1 mg/kg) for long-term pain control prior to being recovered from anesthesia. […] Mice kept for 30 days after surgery were weighed on a weekly basis.
(§2) Cytisine (Sigma-Aldrich, St. Louis, MO) was administered intraperitoneally at a dose of 0.1 μg/gram either 1 hour before torsion or 1 hour after torsion (1 hour prior to detorsion). Varenicline ([…]) was administered as an intraperitoneal injection one hour after the onset of torsion and then continued every 12 hours for a total of 4 doses.
Tissues were harvested and stored at −80° C. until use. Glutathione reductase activity was measured by use of glutathione reductase assay Kit (Sigma-Aldrich, St. Louis, MO). Testis tissue was homogenized in 5% sulfosalicylic Acid (SSA) solution. Samples were then centrifuged and supernatant was reserved. Supernatants were added to a reaction mixture containing 95 mM potassium phosphate buffer, pH 7.0, 0.95 mM EDTA, 0.038 mg/mL NADPH, 0.031 mg/mL DTNB, 0.115 units/mL glutathione reductase, and 0.24% SSA. Absorbance at 412 nm was recorded. Glutathione results were expressed as nm GSH per mL sample.
Following an ischemic event, the initial inflammatory response is characterized by an increase in oxidative stress and production of reactive oxygen species. In order to determine the effect of cytisine treatment on the level of reactive oxygen species (ROS) following testicular torsion, testicular levels of myeloperoxidase (MPO), a marker of neutrophil activation, and reduced glutathione (GSH) levels (an indirect measure of oxidative stress within the testis) were measured.

[7] = Testis weight vs contralateral testis 30 days after torsion (testicular atrophy); type: in vivo, CD1 mice; settings: 30 days after reperfusion, vs untreated
Experimental: as §1
(§3) Mice underwent testicular torsion as previously described (Lysiak 2001). Briefly, mice were anesthetized with isoflurane over a heating pad. The right testis was delivered through a low scrotal incision and rotated counterclockwise 720 degrees to induce ischemia for 2 hours. […] All animals were injected with long-acting buprenorphine (0.1 mg/kg) for long-term pain control prior to being recovered from anesthesia. Mice were euthanized either 18 hours or 30 days following torsion. Mice kept for 30 days after surgery were weighed on a weekly basis.
as §2
The degree of testicular atrophy was determined by comparing the weight of the torsed testis to the contralateral control testis 30 days after reperfusion.

[8] = Masson trichrome staining and ImageJ quantification of collagen in testis 30 days after torsion; type: in vivo, CD1 mice; settings: 30 days following torsion, vs untreated, cytisine p<0.01, varenicline p<0.0001
Experimental: as §3, §2
Testis tissue was harvested and stored in 70% ethanol. Fixation, embedding, sectioning, and staining were performed by the research pathology core at George Washington University. Sections were cut at a thickness of […]. Tissues were stained for H&E or Masson trichrome. Photographs were scanned at 20× resolution with Olympus VS120 virtual slide microscope system. TIF images were analyzed with ImageJ Fiji software as previously described (Caetano, Fronza et al. 2016). The color deconvolution plugin was used to perform ImageJ analysis on an area measuring 3000 square pixels. Automatic thresholding was performed. The amount of collagen in each area is expressed as the percentage of blue pixels in the image area taken as an average of 3 non-overlapping measurements.

[9] = test system: pro-fibrotic genes Col1, Col3, Vim, SMA; assay: RT-PCR of pro-fibrotic markers in testis 30 days after torsion; type: in vivo, CD1 mice; settings: for relative expression of collagen 1 (Col1) / relative expression of collagen 3 (Col3) / relative expression of smooth muscle actin (Sma) / relative expression of vimentin (Vim): 30 days following torsion, vs untreated
Experimental: as §3, §2
RNA was isolated from testis tissue using RNEasy mini kit (Qiagen, Hilden, Germany) using the manufacturer's protocol. RNA concentration was measured with Nanodrop 8000 (Thermo Scientific, Waltham, MA). cDNA was synthesized using Superscript First-Strand Synthesis system for RT-PCR (Invitrogen, Carlsbad, CA) on a GeneAmp PCR System 9700 (Applied Biosystems, Foster City, CA) Real-Real-time PCR was performed using QuantStudio 7 Flex (Applied Biosystems, Foster City, CA). Software Quantstudio Real-Time PCR Software (Thermo Fisher Scientific, Waltham, MA). TaqMan Gene Expression Assays (Applied Biosystems, Foster City, CA). Standard TaqMan primers were used for Col1, Col3, Vim, SMA.

[10] = Renal scar formation and trichrome collagen quantification after acute pyelonephritis; type: in vivo, C3H/HeOuJ mice; settings: 21 days following completion of antibiotic therapy; varenicline plus ceftriaxone vs ceftriaxone alone; p=0.001
Experimental: To initiate pyelonephritis, the bladder was catheterized with a 24-gauge angiocatheter and a total volume of 100 μL of a phosphate-buffered saline containing […] colony forming units (CFU) of CFT073 uropathogenic Escherichia coli (UPEC) was then instilled.
Tissues were preserved in formalin for 72 hours then stored in ethanol. Sections were cut to a 5 μm thickness and stained with H&E or Masson trichrome. Photographs were obtained at 20× resolution with Olympus VS120 virtual slide microscope system. The images were then analyzed with ImageJ Fiji software in order to quantify collagen deposition as previously described (Chen 2017). As collagen deposition would be expected as long-term sequelae of IRI, the trichrome stains of the long-term specimen were examined. All artifacts from the staining process as well as gross collecting system were cropped from these images prior to analysis. A color deconvolution plugin was used to separate the trichrome images into the separate colors. Analysis was performed based upon the percentage of deposition of collagen in the green image compared to the overall area of the kidneys.
Tissues harvested 21 days following completion of antibiotic therapy were subjected to trichome staining to assess for global collagen deposition. After removing artifacts (to ensure only parenchyma was included in the analysis), a color deconvolution plugin was used for ImageJ to divide the images into the respective three colors of the trichrome stain. A threshold was set and collagen was quantified as a percentage of green color in respect to the area of the entire kidney (FIG. 13).

[11] = test system: CFT073 uropathogenic Escherichia coli (UPEC); settings: kidneys harvested after the final dose of antibiotics; ceftriaxone 250 mg/kg s.c. twice daily for 5 days
Experimental: As previously described, female C3H/HeOuJ mice were utilized due to a high incidence of vesicoureteral reflux (VUR) (Li 2017; Murawski 2010; Bowen 2013) and reliable creation of pyelonephritis following bladder inoculation. To initiate pyelonephritis, the bladder was catheterized with a 24-gauge angiocatheter and a total volume of 100 μL of a phosphate-buffered saline containing 108 colony forming units (CFU) of CFT073 uropathogenic Escherichia coli (UPEC) was then instilled. Following the initial bladder inoculation, pyelonephritis was allowed to progress untreated for 5 days.
Following the initial 5-day incubation period, 2 mice were sacrificed to confirm infection. The remaining mice were then treated with ceftriaxone alone (control) or ceftriaxone with varenicline (treatment). All mice received 250 mg/kg of subcutaneous ceftriaxone administered twice daily for a period of 5 days. Animals in the treatment group also received a concurrent twice-daily dose of intraperitoneal varenicline (1 mg/kg) during the first 48 hours of treatment. […] Animals were sacrificed at 14 days following the initial bladder inoculation to assess short-term outcomes, while long-term outcomes were assessed 30 days following initial bladder inoculation.

[12] = administered prior to testicular reperfusion
[13] = administration prior to warm renal ischemia (Gigliotti 2013)

In the case of `CN1CCC[C@H]1c1cccnc1` [nicotine], the “protection of the kidney from IRI” value ([1]; mouse, after renal artery ligation (Sadis 2007, Yeboah 2008)) is given as “protects the mouse kidney from IRI”, the “activation of α7nAChR at clinically reached concentrations” value [2] is given as “do not activate α7nAChR” and the “expression of adhesion molecules such as E-selectin, ICAM-1 and VCAM-1” value [3] is given as “decreasing the expression of adhesion molecules”.

For `COc1cc(C(C)=O)ccc1O` [Apocynin], the testicular myeloperoxidase activity [4] is listed as “decrease testicular myeloperoxidase activity” and the long term spermatogenesis [4] is listed as “preserve long term spermatogenesis”.

For `Cc1ccc(-c2ncc(Cl)cc2-c2ccc(S(C)(=O)=O)cc2)cn1` [Etoricoxib], the apoptosis [4, 12] is listed as “decrease apoptosis” and the oxidative stress [4, 12] is listed as “decrease”.

For `[Zn]` [Zinc], the testicular myeloperoxidase activity [4] is listed as “decrease testicular myeloperoxidase activity” and the long term spermatogenesis [4] is listed as “preserve long term spermatogenesis”.

For `O=c1cccc2n1C[C@@H]1CNC[C@H]2C1` [cytisine], the “CD45+ immune cells in the torsed testis” value [5] was “significantly decreased CD45+ immune cells; also recorded: decreases the number of CD45+ cells”, the “myeloperoxidase activity in testis” value [6] was “decreased levels of myeloperoxidase activity” and the “reduced glutathione levels in testis” value [6] was “increased levels reduced glutathione”. The “testicular atrophy (weight of torsed testis vs contralateral control testis)” value ([7]; drug given an hour after the onset of torsion) was “limited long term testicular atrophy”, the “testicular atrophy (weight of torsed testis vs contralateral control testis)” value ([7]; drug given an hour after the onset of torsion, listed as Cytisine) was “limited testicular atrophy” and the “testicular atrophy (weight of torsed testis vs contralateral control testis)” value ([7]; drug given an hour prior to torsion, p<0.05) was “significantly less testicular atrophy; also recorded: decreased testicular atrophy”. For the same compound, the “collagen content of testis (trichrome staining, percentage of collagen)” value [8] was “untreated group had significantly higher collagen content; also recorded: reduced histologic evidence of testicular fibrosis”, the “collagen content of testis (trichrome staining, percentage of collagen)” value ([8]; listed as Cytisine) was “significantly higher percentage of collagen in the untreated animals” and the “relative expression of collagen 1 (Col1)” value [9] was “reduced the expression; also recorded: significantly decreased”. For the same compound, the “relative expression of collagen 3 (Col3)” value [9] was “reduced the expression; also recorded: significantly decreased”, the “relative expression of smooth muscle actin (Sma)” value [9] was “reduced the expression; also recorded: significantly decreased” and the “relative expression of vimentin (Vim)” value [9] was “reduced the expression; also recorded: significantly decreased”. For the same compound, the “relative expression of collagen 1 (Col1)” value ([9]; listed as Cytisine) was “significantly decreased”, the “relative expression of collagen 3 (Col3)” value ([9]; listed as Cytisine) was “significantly decreased” and the “relative expression of smooth muscle actin (Sma)” value ([9]; listed as Cytisine) was “significantly decreased”. For the same compound, the “relative expression of vimentin (Vim)” value ([9]; listed as Cytisine) was “significantly decreased”, the “expression of pro-fibrotic genes / genetic markers of testicular fibrosis” value ([9]; long term (30 day) outcome, genes not itemised) was “decreased expression of pro-fibrotic genes” and the “acute immune infiltrate after warm renal ischemia” value [1, 13] was “reduced the acute immune infiltrate”. The “long term renal fibrosis after warm renal ischemia” value [1, 13] was “prevented long term renal fibrosis”, the “long term renal function after warm renal ischemia” value [1, 13] was “preserved long term renal function” and the “activation of α7nAChR at clinically reached concentrations” value [2] was “do not activate α7nAChR”.

In the case of `CO/N=C(\C(=O)N[C@@H]1C(=O)N2C(C(=O)O)=C(CSc3nc(=O)c(=O)[nH]n3C)CS[C@H]12)c1csc(N)n1` [ceftriaxone], the “collagen deposition in the kidneys (percentage of green pigment per area of entire kidney)” value [10] is reported as “significantly higher” and the “bacterial growth from cultured kidneys” value [11] is reported as “lack of bacterial growth”.
